Results from PMC9304322, “Targeting retinoic acid receptor alpha-corepressor interaction activates chaperone-mediated autophagy and protects against retinal degeneration” (Nature Communications, 2022).
“And” between values parts separate entries of the source, which are not always exact repeats. Equal entries are not always repeated.

Legend:
[1] = test system: neuroblastoma cell line N2a expressing the KFERQ-PS-Dendra reporter; experiment: CMA activity, KFERQ-PS-Dendra reporter in N2a cells; assay type: cell-based, mouse; parameters: CMA activity, mean (Fig. S2a): unit not given here
Description: Cells were transduced with lentivirus carrying the KFERQ-PS-Dendra reporter as before. Cells were photoactivated by exposure to a 3.5 mA (current constant) light emitting diode (LED: Norlux, 405 nm) for 3 min and then plated in glass-bottom 96 well plates. At the desired times, cells were fixed with 4% PFA and imaged using high-content microscopy (Operetta system, Perkin Elmer). Images were quantified using the manufacturer’s software in a minimum of 1,200 cells in 9 independent fields per well. […] This was particularly important in the case of primary human cells where the efficiency of transduction was ~65%. To avoid confounding effects for drug-induced changes in cell volume or adherence to the plate that could bring a fraction of the cells per field outside of focus, we set a threshold to count only […] that have at least 1/10 of the average number of […] detected in the untreated wells for each cell type (3–4 puncta/cell in the case of NIH3T3 and N2a cells and 5 puncta/cell in primary human fibroblasts).

NIH3T3 = experiment: Intracellular proteolysis of long half-life proteins; assay type: cell-based, mouse
Description: Confluent cells were labelled with [^3H]leucine (2μCi/ml) (NEN-PerkinElmer Life Sciences) for 48 h and then extensively washed and maintained in medium with an excess of unlabeled leucine. Proteolysis was calculated from aliquots of the medium taken at different times and precipitated in trichloroacetic acid, as the amount of acid-precipitable radioactivity transformed to acid-soluble radioactivity at each time. Where indicated cell were treated during the chase with […] leupeptin (Sigma, #108975) and […] NH4Cl (to determine lysosomal degradation) or with 100 μm MRT 68921 dihydrochloride (Tocris, #5780) (to determine macroautophagy degradation).

[2] = test system: CMA network components in NIH3T3 cells; experiment: qPCR of CMA network components and CMA activation score; assay type: cell-based, mouse; parameters: LAMP2A mRNA level / HSP90AB1 mRNA level / HSP40 mRNA level / RAC1 mRNA level / AKT1 mRNA level / AKT2 mRNA level / CTSA mRNA level / NFATC1 mRNA level / HSC70 mRNA level / NCOR1 mRNA level / NFE2L2 mRNA level / RAB11A mRNA level / RARa mRNA level / HSP90AA1 mRNA level / EEF1A1 mRNA level / RICTOR mRNA level: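 fold of untreated cells after 20 µM for 24 h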; key to CMA activation score: weighted (LAMP-2A ×2), directed (±1) average of CMA network expression;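 as to AKT1 mRNA level: fold of untreated cells after 20 µM for 24 h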;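 as to AKT2 mRNA level: fold of untreated cells after 20 µM for 24 h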;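 as to CTSA mRNA level: fold of untreated cells after 20 µM for 24 h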;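 as to HSC70 mRNA level: fold of untreated cells after 20 µM for 24 h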;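 as to HSP40 mRNA level: fold of untreated cells after 20 µM for 24 h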;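 as to HSP90AA1 mRNA level: fold of untreated cells after 20 µM for 24 h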;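 as to HSP90AB1 mRNA level: fold of untreated cells after 20 µM for 24 h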;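 as to LAMP2A mRNA level: fold of untreated cells after 20 µM for 24 h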;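 as to NCOR1 mRNA level: fold of untreated cells after 20 µM for 24 h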;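 as to NFATC1 mRNA level: fold of untreated cells after 20 µM for 24 h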;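 as to NFE2L2 mRNA level: fold of untreated cells after 20 µM for 24 h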;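 as to PHLPP1 mRNA level: fold of untreated cells after 20 µM for 24 h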;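 as to RAB11A mRNA level: fold of untreated cells after 20 µM for 24 h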;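 as to RAC1 mRNA level: fold of untreated cells after 20 µM for 24 h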;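 as to RARa mRNA level: fold of untreated cells after 20 µM for 24 h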
Description: RNA was extracted from individual retinas or tissue sections (brain, liver). Total RNA from retinas was extracted using TRIzol Reagent (Invitrogen, # 15596-018), and reverse transcription was performed using the High-Capacity cDNA Reverse Transcription Kit (Applied Biosystems, # 4374966) according to the manufacturer’s instructions. Quantitative real-time PCR was performed in a Light Cycler 480 Instrument (Roche) with Taqman LightCycler 480 probes Master Mix (Roche, #4887301001) using Taqman assays (Life Technologies). For cells in culture, RNA was extracted using RNeasy Plus Mini Kit (Qiagen, #74034), and reverse transcription was performed using Superscript III (Invitrogen, #18080051). Quantitative RT-PCR analysis were performed using Power SYBR Green PCR Master Mix (Applied Biosystems, #4368708) on a StepOne Plus Real-Time PCR System (Applied Biosystems). Mm01184405_m1 probe (Thermofisher) was used for rhodopsin and the sequence of all the other probes used for qPCR is included in Supplementary Table 2.
CMA index[14] was calculated using data set from[23]–[25]. Briefly, each element of the CMA network[13] has attributed a weight. As LAMP-2A is the rate-limiting component of CMA, it was given a weight of 2. Every other element received a weight of 1. Then, every element was attributed direction score that is +1 or −1 based on the known effect of a given element on CMA activity. The score was then calculated as the weighted/ directed average of expression counts of every element of the CMA network.

[3] = In vitro stability in human liver microsomes; assay type: in vitro ADME; conditions: in words
Description: In vitro solubility in the following conditions A) HBSS/HEPES 10 mM/BSA 0.1% pH 6 B) HBSS/HEPES 10 mM/BSA 0.1% pH 7.4 C) TRIS/BSA 0.1% PBS (pH 7.4 and at indicated doses were measured by Nephelometry using the NEPHELOstar Galaxy apparatus (BMG Lab Technologies). In vitro stability in human, mouse and rat liver microsomes and permeability using a bidirectional permeability assay with CaCo-2 cells (pH 6.5/7.4) assays were performed with standard methodology and analyzed by LC-MS/MS. at SIMM-SERVIER joint Biopharmacy Laboratory. ADME properties for CA39 and CA77 were predicted by QikProp (Schrödinger, LLC, Releases 2016-2020) software.

[4] = Fig. 2d (left), individual replicate values, one sample t test

## CC(=O)Nc1ccc(C2=Nc3ccc(Cl)cc3OC2)cc1 [CA77]
[1]; 12+12w, concentration 0.2
  CMA activity, mean relative to concentration 0 = 1 (Fig. S2b): 0.9934
[1]; 12+12w, concentration 2
  CMA activity, mean relative to concentration 0 = 1 (Fig. S2b): 0.9832
[1]; 12+12w, concentration 5
  CMA activity, mean relative to concentration 0 = 1 (Fig. S2b): 2.103
[1]; 12+12w, concentration 10
  CMA activity, mean relative to concentration 0 = 1 (Fig. S2b): 2.605
[1]; 12+12w, concentration 20
  CMA activity, mean relative to concentration 0 = 1 (Fig. S2b): 4.196
[1]; 12+12w, concentration 30
  CMA activity, mean relative to concentration 0 = 1 (Fig. S2b): 3.752
[1]; 12h, concentration 0.02
  CMA activity, mean (Fig. S2a): 2.724
[1]; 12h, concentration 0.2
  CMA activity, mean (Fig. S2a): 4.16
  CMA activity, mean relative to concentration 0 = 1 (Fig. S2b): 0.9543
[1]; 12h, concentration 2
  CMA activity, mean (Fig. S2a): 4.326
  CMA activity, mean relative to concentration 0 = 1 (Fig. S2b): 0.9922
[1]; 12h, concentration 5
  CMA activity, mean (Fig. S2a): 6.6688
  CMA activity, mean relative to concentration 0 = 1 (Fig. S2b): 1.5297
[1]; 12h, concentration 10
  CMA activity, mean (Fig. S2a): 9.952
  CMA activity, mean relative to concentration 0 = 1 (Fig. S2b): 2.283
[1]; 12h, concentration 20
  CMA activity, mean (Fig. S2a): 10.0764
  CMA activity, mean relative to concentration 0 = 1 (Fig. S2b): 2.311
[1]; 12h, concentration 30
  CMA activity, mean (Fig. S2a): 18.9972
[1]; 12h, concentration 40
  CMA activity, mean (Fig. S2a): 10.5987
[1]; 12h, concentration 50
  CMA activity, mean (Fig. S2a): 9.368
[1]; 12h, concentration 60
  CMA activity, mean (Fig. S2a): 2.016
[1]; 24h, concentration 0.02
  CMA activity, mean (Fig. S2a): 2.2722
[1]; 24h, concentration 0.2
  CMA activity, mean (Fig. S2a): 4.676
  CMA activity, mean relative to concentration 0 = 1 (Fig. S2b): 0.9787
[1]; 24h, concentration 2
  CMA activity, mean (Fig. S2a): 4.697
  CMA activity, mean relative to concentration 0 = 1 (Fig. S2b): 0.9831
[1]; 24h, concentration 5
  CMA activity, mean (Fig. S2a): 13.5914
  CMA activity, mean relative to concentration 0 = 1 (Fig. S2b): 2.845
[1]; 24h, concentration 10
  CMA activity, mean (Fig. S2a): 13.8573
  CMA activity, mean relative to concentration 0 = 1 (Fig. S2b): 2.901
[1]; 24h, concentration 20
  CMA activity, mean (Fig. S2a): 21.7668
  CMA activity, mean relative to concentration 0 = 1 (Fig. S2b): 4.556
[1]; 24h, concentration 30
  CMA activity, mean (Fig. S2a): 18.5853
  CMA activity, mean relative to concentration 0 = 1 (Fig. S2b): 3.89
[1]; 24h, concentration 40
  CMA activity, mean (Fig. S2a): 10.9146
[1]; 24h, concentration 50
  CMA activity, mean (Fig. S2a): 9.363
[1]; 24h, concentration 60
  CMA activity, mean (Fig. S2a): 0.7571
[1]; in words
  CMA activation in neuron-related mouse cells: efficiently activated CMA
NIH3T3; NIH3T3, 10 μM
  duration of the increase in degradation of long-lived proteins: remained upregulated 24 h
NIH3T3; Time 6
  Lysosomal proteolysis, Mean (Fig. S3c): 3.76
NIH3T3; Time 12
  Lysosomal proteolysis, Mean (Fig. S3c): 7.75
[2]; [4]
  AKT1 mRNA level: 1.86 and 1.18 and 1.20 and 0.75 and 0.97 and 1.87 and 1.39
  AKT2 mRNA level: 1.39 and 1.17 and 1.12 and 0.66 and 1.01 and 1.53 and 1.20
  CTSA mRNA level: 1.67 and 1.46 and 1.22 and 0.88 and 1.08 and 1.45
  EEF1A1 mRNA level: 1.15 and 1.98 and 1.39 and 1.19 and 1.55
  HSC70 mRNA level: 1.44 and 1.49 and 1.28 and 0.82 and 1.24 and 1.57
  HSP40 mRNA level: 0.73 and 0.99 and 0.82 and 0.53 and 0.77 and 1.06
  HSP90AA1 mRNA level: 1.50 and 0.94 and 0.92 and 0.76 and 0.78 and 0.87 and 0.90
  HSP90AB1 mRNA level: 1.21 and 0.89 and 0.79 and 0.62 and 0.81 and 0.82 and 0.83
  LAMP2A mRNA level: 1.32 and 1.55 and 1.43 and 1.87 and 2.34 and 2.75 and 2.33
  NCOR1 mRNA level: 2.35 and 1.24 and 0.55 and 0.97 and 2.06 and 1.85
  NFATC1 mRNA level: 2.10 and 1.29 and 1.23 and 0.50 and 0.73 and 1.05 and 1.18
  NFE2L2 mRNA level: 1.29 and 1.15 and 1.04 and 0.89 and 0.77 and 1.26
  PHLPP1 mRNA level: 2.13 and 1.55 and 1.38 and 2.29 and 1.20 and 1.48 and 1.51
  RAB11A mRNA level: 1.15 and 0.97 and 0.81 and 0.59 and 0.79 and 0.89 and 1.07
  RAC1 mRNA level: 0.89 and 1.51 and 1.36 and 1.27 and 1.10 and 1.63 and 1.34
  RARa mRNA level: 1.23 and 0.87 and 0.82 and 0.27 and 1.06 and 2.06 and 1.10
  RICTOR mRNA level: 0.96 and 1.28 and 0.65 and 0.74 and 1.53 and 1.63
[2]; Fig. 2d (right), individual replicate values
  CMA activation score: 0.1487 and -0.2323 and 0.1868 and 0.1591
[2]; NIH3T3, 20μM for 24 h
  predicted CMA score compared to AR7: higher
[3]
  metabolic stability with human liver microsomes: high to intermediate
